Where two headings read alike, the source gives them in different places.
What was measured:
Type in all cases: biochemical
[1] = target: human endothelial constitutive NOS (eNOS) (Homo sapiens, UniProt P29474); assay: eNOS (Human) enzyme assay, radiometric conversion of [3H]L-arginine to [3H]L-citrulline; details: recombinant human enzyme, 37° C., 45 min
Protocol: (§1) Recombinant human inducible NOS (iNOS), human endothelial constitutive NOS (eNOS) or human neuronal constitutive NOS(nNOS) were produced in Baculovirus-infected Sf9 cells (ALEXIS). In a radiometric method, NO synthase activity was determined by measuring the conversion of [^3H]L-arginine to [^3H]L-citrulline. To measure iNOS, 10 μL of enzyme was added to 100 μL of 100 mM HEPES, pH=7,4, containing 1 mM CaCl2, 1 mM EDTA, 1 mM dithiotheitol, 1 μM FMN, 1 μM FAD, 10 μM tetrahydrobiopterin, 120 μM NADPH, and 100 nM CaM. To measure eNOS or nNOS, 10 μL of enzyme was added to 100 μL of 40 mM HEPES, pH=7.4, containing 2.4 mM CaCl2, 1 mM MgCl2, 1 mg/mL BSA, 1 mM EDTA, 1 mM dithiothreitol, 1 μM FMN, 1 μM FAD, 10 μM tetrahydrobiopterin, 1 mM NADPH, and 1.2 μM CaM.
(§2) To measure enzyme inhibition, a 15 μL solution of a test substance was added to the enzyme assay solution, followed by a pre-incubation time of 15 min at RT. The reaction was initiated by addition of 20 μL L-arginine containing 0.25 μCi of [^3H]arginine/mL and 24 μM L-arginine. The total volume of the reaction mixture was 150 μL in every well. The reactions were carried out at 37° C. for 45 min. The reaction was stopped by adding 20 μL of ice-cold buffer containing 100 mM HEPES, 3 mM EGTA, 3 mM EDTA, pH=5.5. [^3H]L-citrulline was separated by DOWEX (ion-exchange resin DOWEX 50 W X 8-400, SIGMA) and the DOWEX was removed by spinning at 12,000 g for 10 min in the centrifuge. An 70 μL aliquot of the supernatant was added to 100 μL of scintillation fluid and the samples were counted in a liquid scintillation counter (1450 Microbeta Jet, Wallac). […] All assays were performed at least in duplicate.

[2] = target: human inducible NOS (iNOS) (Homo sapiens, UniProt P35228); assay: iNOS (Human) enzyme assay, radiometric conversion of [3H]L-arginine to [3H]L-citrulline; details: recombinant human enzyme, 37° C., 45 min
Protocol: as §1, §2

[3] = target: human neuronal constitutive NOS (nNOS) (Homo sapiens, UniProt P29475); assay: nNOS (Human) enzyme assay, radiometric conversion of [3H]L-arginine to [3H]L-citrulline; details: for Ratio e/n: human eNOS / human nNOS; for IC50: recombinant human enzyme, 37° C., 45 min, read-out: Human nNOS
Sequence of human neuronal constitutive NOS (nNOS) (P29475 whole entry): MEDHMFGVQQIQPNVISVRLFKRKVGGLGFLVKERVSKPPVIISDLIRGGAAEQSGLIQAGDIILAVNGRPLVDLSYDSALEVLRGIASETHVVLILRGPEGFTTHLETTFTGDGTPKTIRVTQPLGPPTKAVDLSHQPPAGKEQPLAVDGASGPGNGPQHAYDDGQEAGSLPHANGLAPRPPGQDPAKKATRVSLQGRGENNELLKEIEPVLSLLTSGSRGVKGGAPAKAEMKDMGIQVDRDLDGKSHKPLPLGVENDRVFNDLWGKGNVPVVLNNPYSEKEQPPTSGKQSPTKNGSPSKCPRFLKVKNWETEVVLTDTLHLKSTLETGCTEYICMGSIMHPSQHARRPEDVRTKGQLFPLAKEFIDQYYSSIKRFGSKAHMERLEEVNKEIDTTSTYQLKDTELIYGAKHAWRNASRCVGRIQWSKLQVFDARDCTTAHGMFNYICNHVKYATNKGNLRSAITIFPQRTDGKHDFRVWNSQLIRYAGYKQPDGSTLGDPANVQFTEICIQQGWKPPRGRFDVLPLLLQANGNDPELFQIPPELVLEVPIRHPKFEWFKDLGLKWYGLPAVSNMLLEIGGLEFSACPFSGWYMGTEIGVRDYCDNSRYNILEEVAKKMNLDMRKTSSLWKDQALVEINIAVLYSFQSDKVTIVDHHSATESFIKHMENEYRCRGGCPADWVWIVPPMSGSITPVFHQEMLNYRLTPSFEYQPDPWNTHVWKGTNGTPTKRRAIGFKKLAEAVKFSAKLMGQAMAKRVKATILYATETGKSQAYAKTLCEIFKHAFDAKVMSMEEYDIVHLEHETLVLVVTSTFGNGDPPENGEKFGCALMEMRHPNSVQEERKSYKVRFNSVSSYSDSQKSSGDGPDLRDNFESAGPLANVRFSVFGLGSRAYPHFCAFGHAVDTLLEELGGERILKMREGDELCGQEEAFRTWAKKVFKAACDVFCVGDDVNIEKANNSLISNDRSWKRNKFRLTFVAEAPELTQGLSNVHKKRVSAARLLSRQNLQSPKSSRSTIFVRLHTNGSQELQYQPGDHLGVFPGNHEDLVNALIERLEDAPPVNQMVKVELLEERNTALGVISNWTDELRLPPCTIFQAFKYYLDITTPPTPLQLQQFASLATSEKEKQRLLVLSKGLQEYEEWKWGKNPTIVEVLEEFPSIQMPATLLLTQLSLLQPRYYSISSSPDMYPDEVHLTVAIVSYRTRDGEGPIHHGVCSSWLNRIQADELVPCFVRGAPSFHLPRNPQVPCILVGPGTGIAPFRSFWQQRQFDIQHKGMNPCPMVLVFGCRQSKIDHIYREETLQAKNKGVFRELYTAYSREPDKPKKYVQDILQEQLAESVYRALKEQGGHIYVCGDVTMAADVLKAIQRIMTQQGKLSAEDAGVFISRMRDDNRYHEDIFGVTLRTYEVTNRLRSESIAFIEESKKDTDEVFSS
Protocol: To measure enzyme inhibition, a 15 μL solution of a test substance was added to the enzyme assay solution, followed by a pre-incubation time of 15 min at RT. […] The total volume of the reaction mixture was 150 μL in every well. The reactions were carried out at 37° C. for 45 min. The reaction was stopped by adding 20 μL of ice-cold buffer containing 100 mM HEPES, 3 mM EGTA, 3 mM EDTA, pH=5.5. [^3H]L-citrulline was separated by DOWEX (ion-exchange resin DOWEX 50 W X 8-400, SIGMA) and the DOWEX was removed by spinning at 12,000 g for 10 min in the centrifuge. […] All assays were performed at least in duplicate. Standard deviations were 10% or less.

Row | SMILES | IC50 ([1]; read-out: Human eNOS) [µM] | IC50 [2] [µM] | Ratio e/n [3] | IC50 [3] [µM] | IC50 ([1]; Human eNOS (μM)) [µM]
1 | CN1CCCC(n2ccc3cc(NC(=N)c4ccco4)ccc32)CC1 (single isomer, unassigned) [(+)−55] | 24.5 | 10 |  |  | 
2 | CN1CCCC1CCn1ccc2cc(NC(=N)c3cccs3)ccc21 (single isomer, unassigned) [(+)−57] | 3.37 | 22 |  |  | 
3 | CN1CCCC(n2ccc3cc(NC(=N)c4ccco4)ccc32)CC1 (single isomer, unassigned) [(−)−55] | 28.5 | 46 |  |  | 
4 | CN1CCCC1CCn1ccc2cc(NC(=N)c3cccs3)ccc21 (single isomer, unassigned) [(−)−57] | 1.92 | 1.7 |  |  | 
5 | CN1CCCC1CCn1c(Cc2ccccc2)cc2cc(NC(=N)c3cccs3)ccc21 (centres unmarked) [Compound 6, N-(2-benzyl-1-(2-(1-methylpyrrolidin-2-yl)ethyl)-1H-indol-5-yl)thiophene-2-carboximidamide] | 7.9 |  | 41.57 | 0.19 | 
6 | CCN(CC)CCn1c(Cc2ccc(OC(F)(F)F)cc2)cc2cc(NC(=N)c3cccs3)ccc21 [Compound 11, N-(1-(2-(Diethylamino)ethyl)-2-(4-(trifluoromethoxy)benzyl)-1H-indol-5-yl)thiophene-2-carboximidamide] |  | 17 | 5.62 | 0.8 | 4.5
7 | N=C(Nc1ccc2c(c1)cc(-c1ccc([N+](=O)[O-])cc1)n2CCN1CCCCC1)c1cccs1 [Compound 18, N-(2-(4-nitrophenyl)-1-(2-(piperidin-1-yl)ethyl)-1H-indol-5-yl)thiophene-2-carboximidamide] | 19 |  |  | 0.41 | 
8 | Cc1cc2cc(NC(=N)c3cccs3)ccc2n1CCN(C)C [Compound 25, N-(1-(2-(dimethylamino)ethyl)-2-methyl-1H-indol-5-yl)thiophene-2-carboximidamide] | 3.18 |  | 3.88 | 0.82 | 
9 | Cc1cc2cc(NC(=N)c3cccs3)ccc2n1CCN1CCCC1 [Compound 28, N-(2-methyl-1-(2-(pyrrolidin-1-yl)ethyl)-1H-indol-5-yl)thiophene-2-carboximidamide] | 1.49 |  | 7.41 | 0.2 | 
10 | Cc1cc2cc(NC(=N)c3cccs3)ccc2n1CCC1CCCN1C (centres unmarked) [Compound 32, N-(2-methyl-1-(2-(1-methylpyrrolidin-2-yl)ethyl)-1H-indol-5-yl)thiophene-2-carboximidamide] | 2.87 |  | 20.2 | 0.14 | 
11 | CN1CCCC1CCn1ccc2cc(CNC(=N)c3cccs3)ccc21 (centres unmarked) [Compound 37, N-((1-(2-(1-methylpyrrolidin-2-yl)ethyl)-1H-indol-5-yl)methyl)thiophene-2-carboximidamide] | 91 |  | 1.24 | 73 | 
12 | N=C(Nc1ccc2c(ccn2CCCN2CCOCC2)c1)c1cccs1 [Compound 40, N-(1-(3-morpholinopropyl)-1H-indol-5-yl)thiophene-2-carboximidamide] | 6 |  | 9.09 | 0.66 | 
13 | N=C(Nc1ccc2c(ccn2CCCNC23CC4CC(CC(C4)C2)C3)c1)c1cccs1 [Compound 42, N-(1-(3-adamantanaminopropyl)-1H-indol-5-yl)thiophene-2-carboximidamide] | 3.15 |  | 8.67 | 0.36 | 
14 | CCN1CCCC1CNCCCn1ccc2cc(NC(=N)c3cccs3)ccc21 (centres unmarked) [Compound 44, N-(1-(3-((1-ethylpyrrolidin-2-yl)methylamino)propyl)-1H-indol-5-yl)thiophene-2-carboximidamide] | 6.33 |  |  |  | 
15 | N=C(Nc1ccc2c(ccn2CCCNC2CC2)c1)c1cccs1 [Compound 46, N-(1-(3-(cyclopropylamino)propyl)-1H-indol-5-yl)thiophene-2-carboximidamide] | 8.72 |  | 32.53 | 0.26 | 
16 | CN(C)CCCn1ccc2cc(NC(=N)c3cccs3)ccc21 [Compound 48, N-(1-(3-(dimethylamino)propyl)-1H-indol-5-yl)thiophene-2-carboximidamide] | 12.4 |  |  |  | 

Row | SMILES | IC50 ([1]; read-out: Human eNOS) [µM] | IC50 [2] [µM] | Ratio e/n [3] | IC50 [3] [µM] | IC50 ([1]; Human eNOS (μM)) [µM]
17 | CN1CCCC1CCn1ccc2cc(NC(=N)c3ccco3)ccc21 (centres unmarked) [Compound 53, N-(1-(2-(1-methylpyrrolidin-2-yl)ethyl)-1H-indol-5-yl)furan-2-carboximidamide] | 13.9 |  |  |  | 
18 | CN1CCCC(n2ccc3cc(NC(=N)c4ccco4)ccc32)CC1 (centres unmarked) [Compound 54, N-(1-(1-methylazepan-4-yl)-1H-indol-5-yl)furan-2-carboximidamide] | 38.5 | 49 |  |  | 
19 | CN1CCCC1CCn1ccc2cc(NC(=N)c3cccs3)ccc21 (centres unmarked) [Compound 56, N-(1-(2-(1-methylpyrrolidin-2-yl)ethyl)-1H-indol-5-yl)thiophene-2-carboximidamide] | 4.49 |  |  |  | 
20 | CN1CCCCC1CCn1ccc2cc(NC(=N)c3cccs3)ccc21 (centres unmarked) [Compound 62, N-(1-(2-(1-methylpiperidin-2-yl)ethyl)-1H-indol-5-yl)thiophene-2-carboximidamide] | 6.4 |  | 68.01 | 0.09 | 
21 | N=C(Nc1ccc2c(ccn2-c2cccnc2)c1)c1cccs1 [Compound 74, N-(1-(pyridin-3-yl)-1H-indol-5-yl)thiophene-2-carboximidamide] | 2.57 |  | 6.74 | 0.38 | 
22 | N=C(Nc1ccc2c(ccn2-c2ccc(N)nc2)c1)c1cccs1 [Compound 77, N-(1-(6-aminopyridin-3-yl)-1H-indol-5-yl)thiophene-2-carboximidamide] | 3.08 |  | 5.54 | 0.55 | 
23 | N=C(Nc1ccc2c(ccn2C2CCOCC2)c1)c1cccs1 [Compound 90, N-(1-(tetrahydro-2H-pyran-4-yl)-1H-indol-5-yl)thiophene-2-carboximidamide] | 9.72 |  | 9.34 | 1.04 | 
24 | CN(C)CCn1ccc2cc(NC(=N)c3cccs3)ccc21 [Compound 93, N-(1-(2-(dimethylamino)ethyl)-1H-indol-5-yl)thiophene-2-carboximidamide] | 3.7 |  | 21.3 | 0.17 | 
25 | N=C(Nc1ccc2c(ccn2CCN2CCCCC2)c1)c1cccs1 [Compound 96, N-(1-(2-(piperidin-1-yl)ethyl)-1H-indol-5-yl)thiophene-2-carboximidamide] | 9.2 |  | 53.80 | 0.17 | 
26 | CN1CCC[C@H]1Cn1ccc2cc(NC(=N)c3cccs3)ccc21 [Compound 104, (S)—N-(1-((1-methylpyrrolidin-2-yl)methyl)-1H-indol-5-yl)thiophene-2-carboximidamide] | 3.35 |  | 30.2 | 0.11 | 
27 | N=C(Nc1ccc2c(C3=CN4CCC3CC4)c[nH]c2c1)c1cccs1 [Compound 111, N-(3-(1-azabicyclo[2.2.2]oct-2-en-3-yl)-1H-indol-6-yl)thiophene-2-carboximidamide] | 46.2 |  | 30.19 | 1.53 | 
28 | CN1CCC(c2c[nH]c3cc(NC(=N)c4cccs4)ccc23)C1 (centres unmarked) [Compound 117, N-(3-(1-methylpyrrolidin-3-yl)-1H-indol-6-yl) thiophene-2-carboximidamide] | 7.09 |  | 35.45 | 0.2 | 
29 | CNC1CCC(c2c[nH]c3cc(NC(=N)c4cccs4)ccc23)CC1 (centres unmarked) [Compound 123, N-(3-(4-(methylamino)cyclohexyl)-1H-indol-6-yl)thiophene-2-carboximidamide] | 9.47 |  | 28.96 | 0.32 | 
30 | CNC1CC=C(c2c[nH]c3cc(NC(=N)c4cccs4)ccc23)CC1 (centres unmarked) [Compound 125, N-(3-(4-(methylamino)cyclohex-1-enyl)-1H-indol-6-yl)thiophene-2-carboximidamide] | 21 |  | 46.4 | 0.45 | 
31 | CCCN[C@H]1CC[C@H](c2c[nH]c3cc(NC(=N)c4cccs4)ccc32)CC1 [Compound 138, N-(3-((1r,4r)-4-(propylamino)cyclohexyl)-1H-indol-6-yl)thiophene-2-carboximidamide] | 11.4 |  | 15.83 | 0.72 | 
32 | CC(C)NC1CCC(c2c[nH]c3cc(NC(=N)c4cccs4)ccc23)CC1 (centres unmarked) [Compound 142] | 6.99 |  | 23.6 | 0.29 | 
